Assays:
[1] = system: C3-Luc cells; test: Soft agar assay (anchorage-independent growth); type: cell-based, human; details: 10 μM, 1 μg/mL doxycycline, 4 weeks
Protocol: The assay was done as described previously (21, 22). Briefly C3-Luc cells were plated subconfluently in six-well plates in 0.7% agarose on a 1.4% agarose bed in the presence or absence of 10 μM of Siomycin A and 1 μg/mL of doxycycline. Three times a week, the tissue-culture medium containing these agents was replaced. After 4 weeks, cell colonies that were larger than 1 mm in size were scored.

[2] = system: FoxM1; test: FoxM1 protein (immunoblot) and mRNA (RT-PCR) levels in C3-Luc cells; type: cell-based, human; details: 24 hrs
Source text: FIG. 3. Mechanisms of FoxM1 inhibition by Siomycin A. (A) C3-Luc cells treated as indicated were harvested after 8 hrs and cell lysates were used for immunoprecipitation of FoxM1 protein. These samples were resolved on an SDS-PAGE gel and immunoblotted to determine total and phospho-FoxM1 levels. (B) C3-Luc cells treated with Siomycin A or DMSO were harvested 24 hrs later and the lysates were used to determine FoxM1 protein levels by immunoblotting. (C) RNA from C3-Luc cells treated with Siomycin A or DMSO for 24 hrs was used to determine levels of FoxM1 mRNA using real-time quantitative RT-PCR.
Cells treated with Siomycin A or DMSO (control) were harvested 24 hrs later and RNA was extracted using the TRIzol reagent (15596-026; Invitrogen). cDNA was prepared from this RNA using the Bio-Rad cDNA synthesis kit. […]
(§1) Immunoblotting was performed as described (18-20) with antibodies specific for p21 (556431; BD Pharmingen), survivin (sc-10811; Santa Cruz), cleaved caspase-3 (9664; Cell Signaling), and β-actin (A5441; Sigma) antibodies. Immunoblot for FoxM1 was done using the previously generated rabbit antisera (2), and phospho-FoxM1 was detected using the MPM2 monoclonal antibody (Upstate Biotechnology) which recognizes the phosphorylated protein sequence phosphoserine/phosphothreonine-proline.

[3] = system: Wild type MRC-5 human fetal lung fibroblasts; test: Apoptosis assay (DAPI staining, caspase-3 and survivin immunoblot) in normal fibroblasts; type: cell-based
Protocol: (§2) FIG. 4. Anti-cancer properties of Siomycin A. (A) Representative photographs from soft agar experiment as described in Example 1 are shown. (B) Number of colonies in the soft agar were quantitated and plotted in the form of bar graphs. (C) Wild type and SV40-transformed MRC-5 human fetal lung fibroblasts were treated with indicated concentrations of Siomycin A for 48 hrs. Photographs from phase contrast microscopy (top panel) and fluorescent microscopy after DAPI staining (bottom panel) are shown. (D) Apoptotic nuclei from normal and SV40-transformed MRC-5 fibroblasts treated with indicated concentrations of Siomycin A for 24 hrs were scored after DAPI staining and percentage cell death (mean±sd; n=3) is shown. (E) Wild type and SV40-transformed MRC-5 fibroblasts were treated with Siomycin A as indicated for 48 hrs and the cell lysates were used for immunoblotting and probed for levels of survivin and cleaved caspase-3.
as §1
(§3) Apoptosis was detected by DAPI (4′,6-diamidino-2-phenylindole) staining. All treatments were done in triplicates in 6-well plates and cells were stained with DAPI and visualized by fluorescent microscopy. Four random fields for each sample were photographed and at least 500 cells per field were counted to estimate apoptosis. The data is represented as mean±sd.

[4] = system: SV40-transformed MRC-5 human fetal lung fibroblasts; test: Apoptosis assay (DAPI staining, caspase-3 and survivin immunoblot) in transformed fibroblasts; type: cell-based; details: SV40-transformed cells
Protocol: as §2, §1, §3

[5] = normal cells, 48 hrs, immunoblot

C=C(NC(=O)C(=C)NC(=O)c1csc(C2=N[C@@H]3c4csc(n4)[C@H]4NC(=O)c5csc(n5)[C@H]([C@](C)(O)[C@@H](C)O)NC(=O)[C@H]5CSC(=N5)/C(=C/C)NC(=O)[C@H]([C@@H](C)O)NC(=O)c5csc(n5)[C@]3(CC2)NC(=O)[C@H](C)NC(=O)C(=C)NC(=O)C(=C)NC(=O)[C@H](C(C)C)N[C@@H]2C=Cc3c([C@H](C)O)cc(nc3[C@H]2O)C(=O)O[C@@H]4C)n1)C(N)=O [Siomycin A]
anchorage-independent growth (number of colonies on soft agar) [1]: dramatically reduced the anchorage-independent growth to less than basal untreated value
FoxM1 mRNA levels [2]: significantly decreased
FoxM1 protein levels [2]: significantly decreased
cleavage of caspase-3 [3, 5]: but not normal cells showed cleavage of caspase-3
survivin levels [3, 5]: effectively repress survivin levels
apoptosis / cell death ([3]; untransformed normal cells, forty-eight hours after treatment): did not exhibit significant cell death
cleavage of caspase-3 ([4]; 48 hrs, immunoblot): showed cleavage of caspase-3
survivin levels ([4]; 48 hrs, immunoblot): effectively repress survivin levels
apoptosis / cell death ([4]; forty-eight hours after treatment): dose dependent apoptosis

Reference: patent US8029980B2, “Identification and use of agents that modulate oncogenic transcription agent activity” (The Board of Trustees of the University of Illinois, priority 2006, dated 2011)
